Among the test systems are COLO 205 colon; HCT-15 colon; HL-60(TB) leukemia; NCI-H23 lung; NCI-H460 lung; UACC-257 melanoma; IGROV1 ovarian; MCF7 breast.
Holding throughout (test): NCI anticancer screen, dose series, 48 h

SMILES strings stand for the structures. Where “and” joins values, the source holds several entries; their conditions need not be identical. Identical values can stand only once.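 Method: 48-hour compound exposure of cells in 96-well plates, five concentrations, linear interpolation of endpoints. GI50 = concentration required for 50% inhibition of growth. Definition used: TGI = concentration required for complete inhibition of growth.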

For `COc1cc2cc3c(c(O)c2c(O)c1-c1c(OC)cc2cc4c(c(O)c2c1O)C(=O)O[C@H](C)C4)C(=O)O[C@H](C)C3`, the GI50 was 27.2 µM in the test on COLO 205 colon; 25.6 µM in the test with HCT-15 colon; 95.9 µM with HL-60(TB) leukemia; 32.1 µM with NCI-H23 lung; 16.8 µM in the test on NCI-H460 lung; 22.9 µM with UACC-257 melanoma. Moreover, the TGI in the test with COLO 205 colon was 78.7 µM; in the test with HCT-15 colon it was 82.1 µM; in the test with HL-60(TB) leukemia, over 100 µM; in the test on NCI-H23 lung, over 100 µM; in the test on NCI-H460 lung, 56.8 µM; with UACC-257 melanoma, 48.8 µM.
`COc1ccc(Cc2nc3cc(OC)c(OC)cc3c(=O)[nH]2)cc1`: the GI50 in the test with COLO 205 colon was 2.33 µM; in the test on HCT-15 colon it was 3.57 µM; in the test with HL-60(TB) leukemia, 1.78 µM; in the test with IGROV1 ovarian, 4.61 µM; with MCF7 breast it was 5.32 µM; in the test with NCI-H23 lung it was 4.03 µM. Besides, the GI50 with NCI-H460 lung was 15.3 µM; in the test on UACC-257 melanoma, 6.42 µM. Besides, the TGI was 6.93 µM with COLO 205 colon; over 100 µM in the test with HCT-15 colon; 4.8 µM in the test on HL-60(TB) leukemia; over 67.2 µM in the test with IGROV1 ovarian; over 47.5 µM in the test with MCF7 breast; 33.1 µM in the test with NCI-H23 lung. The TGI was over 100 µM with NCI-H460 lung and 32.1 µM with UACC-257 melanoma.
Regarding `C=CCN=C(N/N=C/c1ccc([N+](=O)[O-])o1)NS(=O)(=O)c1cc(C(=O)Nc2ccccc2)c(Cl)cc1SCC(N)=O`, the GI50 in the test on COLO 205 colon was 6.55 µM; in the test with HCT-15 colon, over 100 µM; in the test on IGROV1 ovarian, 32.2 µM; with MCF7 breast, 25.2 µM; with NCI-H23 lung, 20.9 µM; in the test on NCI-H460 lung, 69.4 µM. For the same molecule, the GI50 with UACC-257 melanoma was 19.5 µM. Moreover, the TGI in the test on COLO 205 colon was over 100 µM; in the test with HCT-15 colon, over 100 µM; with IGROV1 ovarian it was 97.3 µM; in the test with MCF7 breast, 77.6 µM; in the test on NCI-H23 lung, 49.6 µM; with NCI-H460 lung, over 100 µM. In addition, the TGI in the test with UACC-257 melanoma worked out at 49 µM.
With `O=C(Oc1ccc2c(c1)CN(Cc1ccccc1)CO2)c1ccccc1`, the TGI in the test on COLO 205 colon is 31 µM; in the test on HCT-15 colon, 36.2 µM; in the test with IGROV1 ovarian it was 27 µM; in the test on MCF7 breast it was 32.7 µM; with NCI-H23 lung, 30 µM; in the test on NCI-H460 lung, 36.1 µM. In the test on UACC-257 melanoma, this molecule had a TGI of 29.5 µM.
Turning to `N#CC(NC(=O)CCl)=C(Cl)Cl`, the GI50 is 1.44 µM with COLO 205 colon; 0.68 µM in the test on HCT-15 colon; 1.18 µM with IGROV1 ovarian; 1.22 µM in the test on MCF7 breast; 1.7 µM with NCI-H23 lung; 2.69 µM with NCI-H460 lung. In addition, the GI50 in the test on UACC-257 melanoma was 1.55 µM. Moreover, the TGI stood at 2.99 µM in the test with COLO 205 colon; 2.34 µM in the test on HCT-15 colon; 2.92 µM in the test on IGROV1 ovarian; 9.07 µM in the test on MCF7 breast; 3.56 µM in the test on NCI-H23 lung; 7.47 µM with NCI-H460 lung. In addition, in the test with UACC-257 melanoma, the TGI turned out to be 3.09 µM.
With `O=c1cccccc1[O-].O=c1cccccc1[O-].O=c1cccccc1[O-].[Sm+3]`, the TGI in the test on HCT-15 colon was over 100 µM; in the test on HL-60(TB) leukemia, over 100 µM; with IGROV1 ovarian, over 100 µM; in the test on NCI-H23 lung, 71.5 µM; with NCI-H460 lung it was over 100 µM; with UACC-257 melanoma it was over 100 µM.
With `Oc1ccccc1C=Nc1nc(OCc2ccccc2)nc2[nH]ncc12`, the GI50 in the test on COLO 205 colon was 22.2 µM; in the test with HCT-15 colon it was 38.3 µM; with IGROV1 ovarian it was 34.8 µM; in the test with MCF7 breast, 15.5 µM; with NCI-H23 lung, 15.4 µM; with NCI-H460 lung, 24.4 µM. The GI50 in the test with UACC-257 melanoma is 34.2 µM. Besides, the TGI in the test on COLO 205 colon was 49.6 µM; with HCT-15 colon, over 100 µM; in the test on IGROV1 ovarian it was over 100 µM; with MCF7 breast, 35.2 µM; in the test on NCI-H23 lung it was 79.7 µM; in the test on NCI-H460 lung, over 100 µM. This molecule also yielded a TGI with UACC-257 melanoma of over 100 µM.
For `O=C(c1ccccc1)C(Br)C(Br)c1ccccc1` (configuration not stated), the GI50 in the test with COLO 205 colon is 1.92 µM; in the test on HCT-15 colon it was 2.96 µM; in the test with IGROV1 ovarian, 2.94 µM; in the test on MCF7 breast, 1.79 µM; with NCI-H23 lung, 10.4 µM; with NCI-H460 lung it was 13.8 µM. The GI50 with UACC-257 melanoma was 3.2 µM. Further, the TGI is 3.5 µM in the test with COLO 205 colon; 9.76 µM in the test with HCT-15 colon; 12.2 µM in the test with IGROV1 ovarian; 7.85 µM with MCF7 breast; 23.8 µM in the test with NCI-H23 lung; 29.5 µM with NCI-H460 lung. In addition, the TGI in the test with UACC-257 melanoma was determined as 8.04 µM.
For `N/C(=N\C(N)=N\c1nc2ccccc2s1)c1cnccn1`, the GI50 in the test with HCT-15 colon is 3.12 µM; in the test with HL-60(TB) leukemia, 2.68 µM; with MCF7 breast, 3.16 µM; in the test with NCI-H23 lung, 3 µM; in the test with NCI-H460 lung, 3.59 µM; in the test on UACC-257 melanoma, 2.13 µM. Besides, the TGI was over 100 µM with HCT-15 colon; 51.5 µM with HL-60(TB) leukemia; over 100 µM in the test on MCF7 breast; 24.8 µM in the test on NCI-H23 lung; over 100 µM in the test with NCI-H460 lung; 5.26 µM with UACC-257 melanoma.
Take `C=C1CC/C=C(\C)CC[C@H](C(=C)C)[C@@H](O)/C=C(/CO)CCC1O` (some centres not stated): the GI50 was 88.2 µM in the test on COLO 205 colon; over 100 µM in the test with HCT-15 colon; 44.9 µM in the test with IGROV1 ovarian; 21.4 µM in the test on MCF7 breast; 80.6 µM with NCI-H23 lung; 54.8 µM in the test with NCI-H460 lung. Moreover, the GI50 with UACC-257 melanoma was over 100 µM. Also, the TGI in the test with COLO 205 colon, in the test on HCT-15 colon, in the test on IGROV1 ovarian, in the test with MCF7 breast, with NCI-H23 lung and in the test on NCI-H460 lung was over 100 µM in each case. The TGI in the test on UACC-257 melanoma was over 100 µM.
`Cc1nc2c(Br)cc(Br)cc2c(=O)n1-c1ccccc1NC1OCC(O)C(O)C1O` (configuration not stated): the TGI was 34.2 µM and > 100 µM with COLO 205 colon; over 100 µM in the test on HCT-15 colon; 43.4 µM and 15.7 µM with HL-60(TB) leukemia; over 100 µM in the test on IGROV1 ovarian; over 100 µM in the test with MCF7 breast; over 100 µM in the test with NCI-H23 lung. In addition, the TGI with UACC-257 melanoma was > 100 µM and 99.3 µM. The GI50 was 18.6 µM and 7.03 µM with HL-60(TB) leukemia; 28.4 µM and 3.7 µM in the test on MCF7 breast.

Values taken from PubChem BioAssay (NCI).
